The numbers were not newly measured in patent EP3850074B1, “BENEFIT AGENT DELIVERY PARTICLES” (Unilever Global IP Ltd, priority 2018, dated 2020), which cites them from elsewhere.

For the data set the following is noted: at 25°C and at atmospheric pressure.

For the compound `Nc1nc(N)nc(N)n1` [melamine, 2,4,6-triamino-1,3,5-triazine], the “solubility in distilled water” value is reported as “about 0.3 g/L”.
